Measurements: patent US7776790B2 (Platte Chemical Co., priority 2001, dated 2010)

Legend:
[1] = pKa of the acid herbicide in the formulation, measured; format: physicochemical; settings: 2,4-D acid in PCC-1133; glyphosate acid in PCC-1168
[2] = per approximately 100 grams of an aqueous solution (one weight percent); depending on temperature and pH; cited from earlier work

Row | SMILES | pKa [1] | solubility in water or acidic water [2]
1 | O=C(O)COc1ccc(Cl)cc1Cl [2,4-D acid, 2,4-dichlorophenoxy acetic acid] | 2.87 | –
2 | O=C(O)CNCP(=O)(O)O [glyphosate acid, N-(phosphonomethyl)glycine] | ~2.5 | approximately 1 gram
